Assay results taken from a melting point compilation (Tetko et al.; mined from patent text by program, amines drawn as free bases though some values may be those of a salt).

| melting point [°C] | Structure (SMILES) |
| --- | --- |
| 103 | COC(=O)c1cccc2[nH]cc(CC[N+](=O)[O-])c12 |
| 78.2 | CCCCCNC(=O)N(C)c1cccc(-c2ccc(C=C(OC)C(=O)O)cc2OCCOCC)c1 |
| > 250 | N#Cc1cc(N2C=CN=CC2)c[nH]c1=O |
| 149 to 150 | CSc1nnc(-c2ccc3ncn(-c4cccc(OC(F)(F)F)c4)c3c2)o1 |
| 160 to 162 | S=C=Nc1ccc2sc(-c3cccnc3)nc2c1 |
| 188 to 189 | Cc1ccc(-c2c(C(=O)NCc3cc(C(F)(F)F)cc(C(F)(F)F)c3)oc(=O)c3cnccc23)cc1 |
| 92 to 95 | COc1ccc(C2CCN(C(=O)N3CCC(Nc4ccc(CCNC[C@H](O)COc5ccc(O)cc5)cc4)CC3)CC2)cc1OC1CCCC1 |
| 57 to 58 | O=S(c1ccccc1-c1ccccc1)C(F)(F)F (stereo not given) |
| 59 to 60 | COc1cc2c(c(OC)c1/C=C/c1ccc(CN)cc1)C(C)(C)CCC2(C)C |
| 109 to 110 | Cc1c(OCC(F)(F)F)ccnc1CSc1nc2cc(N3CCN(C)CC3)c(F)cc2[nH]1 |
| 164 to 167 | C[C@@H](Nc1nnc(-c2ccccc2)c2ccccc12)C1CCCCC1 |
| 74.5 to 77.5 | Cc1ccc(C(=O)N(c2ccccc2)c2ccc(OCCN(C)C)cc2)cc1 |
| 75 to 79 | CCCCCCCCCCCCn1nnc(CC(=O)Nc2c(C(C)C)cccc2C(C)C)n1 |
| 181 to 182 | CNCc1ccsc1CC(=O)O |
| 139 to 141 | N=C(NCc1ccccc1)NN=Cc1ccc(Cl)cc1Cl |
| 90 to 92 | CCCC(C)(C(=O)N(C)C)n1cc(C)c(-c2ccccc2)n1 (stereo not given) |
| 163 to 164 | CCOC(=O)c1cn(C(c2ccccc2)(c2ccccc2)c2ccccc2)cn1 |
| 152 to 156 | CCOc1ccc(-c2nc(=O)c3ccccc3s2)cn1 |
| 109 | O=C(c1ccccc1)c1cccc(NC(=O)c2ccn3c2CSC3c2cccnc2)c1 (single isomer, unassigned; (+)) |
| 172 to 173 | CN1C(=O)C=C[C@]2(C)c3ccc(-c4cccc5ccccc45)cc3CC[C@@H]12 |
| 65 to 66 | COC(=O)C(=Cc1cc(OC)cc(OC)c1)c1ccc(Oc2ccc(CC3SC(=O)NC3=O)cc2)cc1 (stereo not given) |
| 102 to 104 | Cc1ccc(C)n1-c1ccc(C(=O)N(C)C)cc1 |
| 163 to 165 | COc1cc2c(cc1Br)-c1cc3c(n1CC2)C(=O)N(C(C)(C)C)CCC3 |
| 210 to 211 | CCc1ccc2oc(=O)c(NC(=O)Nc3ccc(F)cc3F)c(-c3ccccc3C)c2c1 |

| melting point [°C] | Structure (SMILES) |
| --- | --- |
| 115 to 116 | Oc1cccc([C@H]2CCCC[C@H]2NCCCCc2ccccc2)c1 (racemic) |
| 174 | COCOc1ccc(C(=O)O)c(OCc2ccc(Cl)cc2Cl)c1C |
| 175 to 176 | O=C(O)c1cc(F)c(F)cc1NC1CC1 |
| 170 to 172 | COc1cc(Cl)c([N+](=O)[O-])cc1C(=O)NCCC(=O)O |
| 128 to 130 | Cc1c(Br)c2c(c(C)c1NC(=O)OC(C)(C)C)C(N1CCCC1)C(C)(C)O2 (stereo not given) |
| 112 to 113 | COC(=O)c1c(OC)ccc(NC(=O)C(F)(F)F)c1OC |
| 71 to 72 | CN1CCN(c2ccc(S(=O)(=O)c3ccccc3)c3ccccc23)CC1 |
| 81 to 91 | CSCC(=O)[C@H](Cc1ccccc1)NC(=O)[C@H](CC(C)C)NC(=O)OCc1ccccc1 |
| 146 to 149 | O=S1(=O)NCCNc2ccc(Oc3ccccc3)cc21 |
| 164 to 166 | C=CCc1c(O)ccc2oc(C(=O)c3ccc(F)cc3)c(C)c12 |
| 172 to 174 | CCN(CC)CCCNC(=O)Cn1c(-c2ccc(Cl)cc2)nc2cccnc21 |
| 125 to 126 | O=C(Cc1ncc[nH]1)c1ccc2ccccc2c1 |
| > 280 | O=[N+]([O-])C=Cc1c[nH]c2ccc(-c3ccc4[nH]cnc4c3)cc12 |
| 135 | O=S(=O)(COc1ncc(Cl)cn1)c1ncc(Cl)cn1 |
| 139 to 140 | COc1cc2c(cc1O)CCN(Cc1cccc(Oc3ccccc3)c1)C2 |
| 161 to 163 | CCCCCCN(Cc1ccc2ccccc2n1)C(Nc1cc(C(C)(C)C)c(O)c(C(C)(C)C)c1)=C1C(=O)OC(C)(C)OC1=O |
| 189 to 192 | Cc1c(NC(=O)c2ccc(-c3ccc(F)cc3)cc2)ccc2cc(C(C)O)cnc12 (stereo not given) |
| 147 to 150 | Nn1cnn(C2CCc3ccccc3C2)c1=S (stereo not given) |
| 69 to 70 | CCc1ccc(OCc2cccc(NC(=O)CCC(=O)OC)c2)cc1OC |
| 30 to 40 | C[Si](C)(CCl)c1ccc(-c2ccccc2)cc1 |
| 190 | CN(c1cccc2cc(-c3nccs3)[nH]c12)S(=O)(=O)c1ccsc1C(=O)N1CCOCC1 |
| 67 to 75 | COC(=O)CCNc1ccccc1CNC(=O)C1Cc2ccccc2N1S(=O)(=O)c1ccc(I)cc1 (stereo not given) |
| 170 to 171 | COc1ccc(CC(=O)NC(NC(=NC#N)Nc2c(F)cc(F)cc2F)C(C)(C)C)cc1OC (stereo not given) |
| 143 to 145 | CS(=O)(=O)Nn1c(=O)[nH]c2cc(C(F)(F)F)c(-n3cnc(C#N)c3)cc2c1=O |

| melting point [°C] | Structure (SMILES) |
| --- | --- |
| 180 | O=C1CN(c2ccc(CC3NC(=O)c4ccccc4NC3=O)cc2O)S(=O)(=O)N1 (stereo not given) |
| 182 to 184 | Cc1ccc(C)n1N1C(=O)c2ccccc2C1=O |
| 83 to 84 | CCCCCCCCCCCCCCCCCCCC(=O)OCC(O)COC(=O)CCCCCCCCCCCCCCCCCCC |
| 230 to 231 | Cc1nc2ccccc2n(-c2ccc(N(C)C)cc2)c1=O |
| 130 to 132 | CCC(O)(CC)CC1NC(=O)c2ccccc21 (stereo not given) |
| 186 to 188 | FC(F)(F)c1nc(Cl)c(Cl)[nH]1 |
| 86 to 96 | COc1ccc(CN2CCC(C(O)(c3ccc(OC(F)(F)F)cc3)c3ccc(OC(F)(F)F)cc3)CC2)cc1 |
| 223 | Cc1ccc2c(c1)C=Cc1cc(C)ccc1C2c1cn(-c2ccnc(NCC(=O)Nc3nc(CC(=O)O)cs3)n2)c(=O)[nH]c1=O |
| 276 to 278 | COCc1ccc(Cc2cccc(-c3c(O)c4ccc(Cl)cc4[nH]c3=O)c2)cc1 |
| 109 to 110 | CC(C)(C)OC(=O)N1CCC(c2ccc(N3C[C@H](CN=[N+]=[N-])OC3=O)cc2F)CC1 |
| 63 to 64 | COC(=O)c1cc(OC)c(Cl)cc1N |
| 214 to 217 | Cc1ccc(C=C2C=C(C(C)(C)C)C=C(C(C)(C)C)C2=O)cc1C |
| 240 to 241 | N#Cc1cnc2cc(/C=C/c3ccncc3)sc2c1Nc1ccc(Oc2ccccc2)cc1 |
| 131 to 132 | O=C(c1ccc(F)nc1)N1CCC[C@H](c2nc(-c3ccc[nH]3)no2)C1 |
| 222 to 224 | CC1=NC(NC(=O)Nc2cccc(C)c2)C(=O)N(CC(=O)N(C)c2ccccn2)c2c(C)cccc21 (stereo not given) |
| > 210 | CC(O)=C(C#N)CC(=O)Nc1ccc(NC(=O)CBr)cc1 |
| 179 | Cc1ccc(C(=O)O)c(Oc2ccc3c(c2)c(C(=O)O)c(CC(=O)O)n3-c2ccc(OC(C)C)cc2)n1 |
| 270 to 275 | Cc1ccc2[nH]cc(C3=C(c4c[nH]c5ccc(C)cc45)C(=O)N(C)C3=O)c2c1 |
| 92.8 to 97.8 | CCOC(=O)Nc1cc(OC2CCCC2)c(Cl)cc1F |
| 179 | CC1(C)Oc2ccc(C(=O)CO)cc2[C@H](NC(=O)c2cc(F)cc(F)c2)[C@H]1O |
| 193 to 195 | Nc1ccc(CCN2CCC(NC(=O)c3ccccc3)CC2)cc1 |
| 117 | CS(=O)c1ccc(C(=O)c2cnoc2C2CC2)c(Cl)c1 (stereo not given) |
| 195 to 197 | CN1CC(c2ccc(Cl)cc2)=NNC1=O |
| 103 to 104 | CC(C)c1c(O)ccc2cnc(Nc3ccccc3)nc12 |

| melting point [°C] | Structure (SMILES) |
| --- | --- |
| 138 to 142 | COc1ccc(CCNC[C@H](O)COc2ccc(-c3nc(C(C)=O)c[nH]3)cc2)cc1OC |
| 122 to 124 | O=C(C=Cc1ccncc1)c1ccco1 |
| 114 to 116 | C(/CN1CCOCC1)=C1/CCCc2c1cnn2-c1ccccc1 |
| 120 to 122 | CCn1cc(C(=O)O)c(=O)c2cc(F)c(N3CCCC(CN)C3)nc21 (stereo not given) |
| 185 to 186 | O=C(NCCO)/C(=C/c1ccc(C(F)(F)F)c(F)c1)NC(=O)c1ccc(OCCC(F)(F)F)cc1 |
| 140 to 141 | O=C(Oc1ccccc1)N1CCN2C(=O)OC(Cc3ccccc3)(Cc3ccccc3)C2C1 (stereo not given) |
| 52 to 54 | CCSC=C1C(=O)OC(C)(C)OC1=O |
| 94 | O=C(Cl)Oc1cccc(NC(=O)C2CC2)c1 |
| 102 to 104 | Cc1c(C)c2c(c(C)c1N)CC(C)(CNCCN1CCCCC1)O2 (stereo not given) |
| 178 to 180 | COc1ccccc1[C@H](c1cccc2ccccc12)[C@@](C)(C#N)C(=O)N1CCN(c2ccc(Cl)cc2)CC1 |
| 96 to 98 | COc1ccc(-c2cc(=Nc3c(C)cc(C)cc3C)n(C)c(N(C)Cc3ccccc3)n2)cc1OC |
| 46 to 50 | COc1ccc(NN)cc1F |
| 145 to 146 | COC(=O)Oc1ccc(N=C(C#N)c2ccccc2)cc1 |
| 82 to 84 | CCSc1cc(S(N)(=O)=O)sc1SCC |
| 163 to 165 | COc1nc(-n2ncc(C#N)c2N)c(C(F)(F)F)cc1Cl |
| 264 to 267 | Cc1nc2c3c(c(C(N)=O)cc2n1C)CCC(c1ccccc1)O3 (stereo not given) |
| 64.5 to 66 | Cc1cc2occc2c(Cl)n1 |
| 177 to 178 | CC(C)(C)OC(=O)Nc1ccc(C#Cc2ccccc2)cc1N |
| 138 to 141 | CCc1cccc(C)c1CNc1cc(C(=O)N(C)C)cc2c1nc(CO)n2C |
| 91.5 to 91.9 | c1ccc(COc2cc(OCc3ccccc3)cc(OCc3ccccc3)c2)cc1 |
| 95 to 99 | CC(=O)c1ccc(Oc2ccc(Cl)c3ccccc23)cc1 |
| 52 to 53 | Cc1ccc(O)c2c1C(C)CC2=O (stereo not given) |

| Structure (SMILES) | melting point [°C] |
| --- | --- |
| NCC1C[N+]([O-])=C(c2ccccc2F)c2cc(Cl)ccc2N1 (stereo not given) | 144 to 148 |
| O=C1c2cc(Cl)ccc2-n2cncc2[C@@H]2CCCN12 | 216 to 217 |
| CCC(=O)N1N=C(c2ccc([N+](=O)[O-])cc2)c2cc3c(cc2CC1C)OCO3 (stereo not given) | 189 to 190 |
| O=C(NC1CC1)c1ccc(N2CCNCC2)cc1 | 175 to 177 |
| Nc1c2c(nc3ccccc13)C1C=CC2C1 (stereo not given) | 123 |
| NC(CC(=O)O)C1CC=CCC1 (stereo not given) | 208 to 210 |
